{"source": "PubChem BioAssay AID1259409", "about": "(Chemical Carcinogenesis Research Information System (CCRIS), 2018)", "origin": "cited, not measured here", "tested_on": "rodent chemically induced tumor inhibition, incidence and multiplicity", "assay": "CCRIS tumor inhibitor studies", "details": "Carcinogen: N-NITROBIS(2-OXOPROPYL)AMINE, 60559-38-4, Route [Inhibitor]: ORAL, Species: HAMSTER, Promoter: NONE USED", "note": "“And” between values parts separate entries of the source, which are not always exact repeats. Equal values may be shown once."}
{"smiles": "CC1=C(/C=C/C(C)=C/C=C/C(C)=C/C(=O)Nc2ccccc2)C(C)(C)CCC1", "values": [{"measurement": "tumour outcome (control, treated, inhibition, significance)", "setting": "Dose [Inhibitor]: 0.5 OR 1.0 MMOL/KG DIET DAILY STARTING 1 WK AFTER CARCINOGEN TREATMENT AND CONTINUING THROUGH THE END OF THE STUDY (STUD, Strain/Sex: SYRIAN/FEMALE, Target Tissue: Type of Lesion: PANCREAS: DUCTULAR ADENOMA, Dose [Carcinogen]: 10 MG/KG BW ONCE", "value": "5/23 (22%), 11/25 (44%), -100%, not significant"}, {"measurement": "tumour outcome (control, treated, inhibition, significance)", "setting": "Dose [Inhibitor]: 0.5 OR 1.0 MMOL/KG DIET DAILY STARTING 1 WK AFTER CARCINOGEN TREATMENT AND CONTINUING THROUGH THE END OF THE STUDY (STUD, Strain/Sex: SYRIAN/FEMALE, Target Tissue: Type of Lesion: PANCREAS: DUCTULAR ADENOMA, Dose [Carcinogen]: 40 MG/KG BW ONCE", "value": "12/20 (60%), 18/26 (69%), -15%, not significant"}, {"measurement": "tumour outcome (control, treated, inhibition, significance)", "setting": "Dose [Inhibitor]: 0.5 OR 1.0 MMOL/KG DIET DAILY STARTING 1 WK AFTER CARCINOGEN TREATMENT AND CONTINUING THROUGH THE END OF THE STUDY (STUD, Strain/Sex: SYRIAN/FEMALE, Target Tissue: Type of Lesion: PANCREAS: DUCTULAR CARCINOMA, Dose [Carcinogen]: 10 MG/KG BW ONCE", "value": "6/23 (27%), 2/25 (8%), 70%, not significant"}, {"measurement": "tumour outcome (control, treated, inhibition, significance)", "setting": "Dose [Inhibitor]: 0.5 OR 1.0 MMOL/KG DIET DAILY STARTING 1 WK AFTER CARCINOGEN TREATMENT AND CONTINUING THROUGH THE END OF THE STUDY (STUD, Strain/Sex: SYRIAN/MALE, Target Tissue: Type of Lesion: LIVER: BENIGN TUMOR, Dose [Carcinogen]: 40 MG/KG BW ONCE", "value": "4/20 (20%), 12/26 (46%), -130%, not significant and 5/24 (21%), 17/39 (44%), -110%, p<0.05"}, {"measurement": "tumour outcome (control, treated, inhibition, significance)", "setting": "Dose [Inhibitor]: 0.5 OR 1.0 MMOL/KG DIET DAILY STARTING 1 WK AFTER CARCINOGEN TREATMENT AND CONTINUING THROUGH THE END OF THE STUDY (STUD, Strain/Sex: SYRIAN/MALE, Target Tissue: Type of Lesion: PANCREAS: DUCTULAR ADENOMA, Dose [Carcinogen]: 10 MG/KG BW ONCE", "value": "3/22 (14%), 14/31 (45%), -221%, p<0.05"}, {"measurement": "tumour outcome (control, treated, inhibition, significance)", "setting": "Dose [Inhibitor]: 0.5 OR 1.0 MMOL/KG DIET DAILY STARTING 1 WK AFTER CARCINOGEN TREATMENT AND CONTINUING THROUGH THE END OF THE STUDY (STUD, Strain/Sex: SYRIAN/MALE, Target Tissue: Type of Lesion: PANCREAS: DUCTULAR ADENOMA, Dose [Carcinogen]: 40 MG/KG BW ONCE", "value": "8/24 (33%), 19/37 (51%), -55%, not significant"}, {"measurement": "tumour outcome (control, treated, inhibition, significance)", "setting": "Dose [Inhibitor]: 0.5 OR 1.0 MMOL/KG DIET DAILY STARTING 1 WK AFTER CARCINOGEN TREATMENT AND CONTINUING THROUGH THE END OF THE STUDY (STUD, Strain/Sex: SYRIAN/MALE, Target Tissue: Type of Lesion: PANCREAS: DUCTULAR CARCINOMA, Dose [Carcinogen]: 10 MG/KG BW ONCE", "value": "4/22 (18%), 3/31 (10%), 44%, not significant"}, {"measurement": "tumour outcome (control, treated, inhibition, significance)", "setting": "Dose [Inhibitor]: 0.5 OR 1.0 MMOL/KG DIET DAILY STARTING 1 WK AFTER CARCINOGEN TREATMENT AND CONTINUING THROUGH THE END OF THE STUDY (STUD, Strain/Sex: SYRIAN/MALE, Target Tissue: Type of Lesion: PANCREAS: DUCTULAR CARCINOMA, Dose [Carcinogen]: 40 MG/KG BW ONCE", "value": "5/24 (21%), 15/37 (40%), -90%, not significant"}, {"measurement": "tumour outcome (control, treated, inhibition, significance)", "setting": "Dose [Inhibitor]: 0.5 OR 1 MMOL/KG DIET DAILY STARTING 1 WK AFTER CARCINOGEN TREATMENT AND CONTINUING THROUGH THE END OF THE STUDY (STUDY, Strain/Sex: SYRIAN/FEMALE, Target Tissue: Type of Lesion: PANCREAS: DUCTULAR CARCINOMA, Dose [Carcinogen]: 40 MG/KG BW ONCE", "value": "6/20 (30%), 7/26 (27%), 10%, not significant"}, {"measurement": "tumour outcome (control, treated, inhibition, significance)", "setting": "Dose [Inhibitor]: 0.5 OR 1.0 MMOL/KG/D IN DIET STARTING 1 WK AFTER CARCINOGEN TREATMENT AND CONTINUING THROUGH THE END OF THE STUDY (STUDY, Strain/Sex: SYRIAN/FEMALE, Target Tissue: Type of Lesion: LIVER: BENIGN TUMOR, Dose [Carcinogen]: 40 MG/KG BW ONCE", "value": "4/20 (20%), 12/26 (46%), -130%, not significant"}, {"measurement": "tumour outcome (control, treated, inhibition, significance)", "setting": "Dose [Inhibitor]: 0.5 OR 1.0 MMOL/KG/D IN DIET STARTING 1 WK AFTER CARCINOGEN TREATMENT AND CONTINUING THROUGH THE END OF THE STUDY (STUDY, Strain/Sex: SYRIAN/FEMALE, Target Tissue: Type of Lesion: PANCREAS: DUCTULAR ADENOMA, Dose [Carcinogen]: 10 MG/KG BW ONCE", "value": "5/23 (22%), 11/25 (44%), -100%, not significant"}, {"measurement": "tumour outcome (control, treated, inhibition, significance)", "setting": "Dose [Inhibitor]: 0.5 OR 1.0 MMOL/KG/D IN DIET STARTING 1 WK AFTER CARCINOGEN TREATMENT AND CONTINUING THROUGH THE END OF THE STUDY (STUDY, Strain/Sex: SYRIAN/FEMALE, Target Tissue: Type of Lesion: PANCREAS: DUCTULAR ADENOMA, Dose [Carcinogen]: 40 MG/KG BW ONCE", "value": "12/20 (60%), 18/26 (69%), -15%, not significant"}, {"measurement": "tumour outcome (control, treated, inhibition, significance)", "setting": "Dose [Inhibitor]: 0.5 OR 1.0 MMOL/KG/D IN DIET STARTING 1 WK AFTER CARCINOGEN TREATMENT AND CONTINUING THROUGH THE END OF THE STUDY (STUDY, Strain/Sex: SYRIAN/FEMALE, Target Tissue: Type of Lesion: PANCREAS: DUCTULAR CARCINOMA, Dose [Carcinogen]: 10 MG/KG BW ONCE", "value": "6/23 (27%), 2/25 (8%), 70%, not significant"}, {"measurement": "tumour outcome (control, treated, inhibition, significance)", "setting": "Dose [Inhibitor]: 0.5 OR 1.0 MMOL/KG/D IN DIET STARTING 1 WK AFTER CARCINOGEN TREATMENT AND CONTINUING THROUGH THE END OF THE STUDY (STUDY, Strain/Sex: SYRIAN/FEMALE, Target Tissue: Type of Lesion: PANCREAS: DUCTULAR CARCINOMA, Dose [Carcinogen]: 40 MG/KG BW ONCE", "value": "6/20 (30%), 7/26 (27%), 10%, not significant"}, {"measurement": "tumour outcome (control, treated, inhibition, significance)", "setting": "Dose [Inhibitor]: 0.5 OR 1.0 MMOL/KG/D IN DIET STARTING 1 WK AFTER CARCINOGEN TREATMENT AND CONTINUING THROUGH THE END OF THE STUDY (STUDY, Strain/Sex: SYRIAN/MALE, Target Tissue: Type of Lesion: LIVER: BENIGN TUMOR, Dose [Carcinogen]: 40 MG/KG BW ONCE", "value": "5/24 (21%), 17/39 (44%), -110%, p<0.05"}, {"measurement": "tumour outcome (control, treated, inhibition, significance)", "setting": "Dose [Inhibitor]: 0.5 OR 1.0 MMOL/KG/D IN DIET STARTING 1 WK AFTER CARCINOGEN TREATMENT AND CONTINUING THROUGH THE END OF THE STUDY (STUDY, Strain/Sex: SYRIAN/MALE, Target Tissue: Type of Lesion: PANCREAS: DUCTULAR ADENOMA, Dose [Carcinogen]: 10 MG/KG BW ONCE", "value": "3/22 (14%), 14/31 (45%), -221%, p<0.05"}, {"measurement": "tumour outcome (control, treated, inhibition, significance)", "setting": "Dose [Inhibitor]: 0.5 OR 1.0 MMOL/KG/D IN DIET STARTING 1 WK AFTER CARCINOGEN TREATMENT AND CONTINUING THROUGH THE END OF THE STUDY (STUDY, Strain/Sex: SYRIAN/MALE, Target Tissue: Type of Lesion: PANCREAS: DUCTULAR ADENOMA, Dose [Carcinogen]: 40 MG/KG BW ONCE", "value": "8/24 (33%), 19/37 (51%), -55%, not significant"}, {"measurement": "tumour outcome (control, treated, inhibition, significance)", "setting": "Dose [Inhibitor]: 0.5 OR 1.0 MMOL/KG/D IN DIET STARTING 1 WK AFTER CARCINOGEN TREATMENT AND CONTINUING THROUGH THE END OF THE STUDY (STUDY, Strain/Sex: SYRIAN/MALE, Target Tissue: Type of Lesion: PANCREAS: DUCTULAR CARCINOMA, Dose [Carcinogen]: 10 MG/KG BW ONCE", "value": "4/22 (18%), 3/31 (10%), 44%, not significant"}, {"measurement": "tumour outcome (control, treated, inhibition, significance)", "setting": "Dose [Inhibitor]: 0.5 OR 1.0 MMOL/KG/D IN DIET STARTING 1 WK AFTER CARCINOGEN TREATMENT AND CONTINUING THROUGH THE END OF THE STUDY (STUDY, Strain/Sex: SYRIAN/MALE, Target Tissue: Type of Lesion: PANCREAS: DUCTULAR CARCINOMA, Dose [Carcinogen]: 40 MG/KG BW ONCE", "value": "5/24 (21%), 15/37 (40%), -90%, not significant"}]}
